Measured values taken from patent publication US4670435A, “10,11-dihydro-5H-dibenzo[a,d]cycloheptadiene derivatives in a method for treating cardiac arrhythmia” (priority 1984, dated 1987).
Structures can show the parent of a compound that is named as a salt.

Experiments:
[1] = tested on: arrhythmias; experiment: Antiarrhythmic action, aconitine infusion, rat, oral administration; type: in vivo, Sprague-Dawley rats; details: for ED50: Rattus norvegicus, po, read-out: ED 50% (dose which prolongs the aconitine infusion duration by 50%)
Method: (§1) The substances were administered orally to Sprague-Dawley rats weighing 200-250 g. 45 minutes thereafter, the animals were anesthetized with 100 mg/kg of thiobutabarbital Na, administered intraperitoneally. Aconitine, as an arrhythmogenic substance, was infused intravenously into the jugular vein 60 minutes after administration of the substance (dosage rate: 0.005 mg per kg per min). In the case of untreated animals (N=52), arrhythmias appeared in the ECG after 2.74±0.07 minutes, the appearance of these arrhythmias being delayed by antiarrhythmic agents in a dose-dependent manner.
(§2) The dose which prolongs the duration of aconitine infusion by 50%, ie. the ED 50%, was determined from the linear relationship between log dose (mg/kg) of the test substances and the relative prolongation of aconitine infusion duration (Δ%).

[2] = Acute toxicity: dose at which first toxic symptoms (change in initial ECG, cyanosis or cramp) occur, rat, oral; type: in vivo, Sprague-Dawley rats; details: Table 2, oral administration, geometric progression of doses (factor 2.154)
Method: as §1
(§3) Furthermore, the dose at which toxic symptoms (change in the initial ECG, cyanosis or cramp) occur was determined from the geometric progression of doses (factor 2.154) used in the experiments.

[3] = Therapeutic index: quotient of acute toxic dose to antiarrhythmic ED 50%; design: species or system Sprague-Dawley rats; details: in vivo; Table 2; rat, oral administration; measure of therapeutic index; read-out: Q (quotient of acute toxic dose to antiarrhythmic ED 50%)
Method: as §1, §2, §3
The quotient of acute toxic dose to antiarrhythmic ED 50% was determined as a measure of the therapeutic index of the novel compounds.

`CC(C)NCC(C)(O)CC1c2ccccc2CCc2ccccc21` (stereo not shown) [Example 1, N-[2-hydroxy-2-methyl-3-(10,11-dihydro-5H-dibenzocycloheptadienyl)-propyl]-N-isopropylamine hydrochloride] gave an ED50 [1] of 6.51 mg/kg.
In the case of `CNCC(C)(O)CC1c2ccccc2CCc2ccccc21` (stereo not shown) [Example 3], the “Toxic dose (dose at which the first toxic symptoms are observed)” value (“Toxic dose” below) [2] is reported as 100 mg/kg, the selectivity ratio [3] is reported as 32 and the ED50 [1] is reported as 3.11 mg/kg.
In the case of `CC(O)(CNC(C)(C)C)CC1c2ccccc2CCc2ccccc21` (stereo not shown) [Example 4], the “Toxic dose” value [2] is reported as 215 mg/kg, the selectivity ratio [3] is reported as 33 and the ED50 [1] is reported as 6.47 mg/kg.
Compound `CCCNCC(C)(O)CC1c2ccccc2CCc2ccccc21` (stereo not shown) [Example 5] has an ED50 [1] of 7.78 mg/kg.
For `COCC(C)NCC(C)(O)CC1c2ccccc2CCc2ccccc21` (stereo not shown) [Example 6], the ED50 [1] was 6.83 mg/kg.
For `CC(O)(CC1c2ccccc2CCc2ccccc21)CN1CCC(O)(c2ccccc2)CC1` (stereo not shown) [Example 9], the ED50 [1] was 2.57 mg/kg.
For `C=C[C@H]1C[N@@]2CC[C@H]1C[C@@H]2[C@@H](O)c1ccnc2ccc(OC)cc12` [Quinidine, quinidine, reference compound], the “Toxic dose” value [2] was 464 mg/kg, the selectivity ratio [3] was 11 and the “ED 50% (dose which prolongs the aconitine infusion duration by 50%)” value ([1]; Table 2, rat, oral administration, 60 minutes before aconitine i.v. infusion 0.005 mg per kg per min) was 43.5 mg/kg.
